Experimental findings from PMC10518255, “A first-in-class pan-lysyl oxidase inhibitor impairs stromal remodeling and enhances gemcitabine response and survival in pancreatic cancer” (Nature Cancer, 2023) are described below.

Several values for one entry are separate records, joined by “and”; a condition that tells them apart may be missing. Equal values may be shown once.

For one data set, the system named is F4/80. Briefly: Immunohistochemistry of end-point KPC tumors: macrophage infiltration. It is filed as in vivo, mouse. The following applies: KPC tumours at endpoint; individual replicate values (Extended Data 6G). The procedure: All tissues or matrices, including patient TMAs, were fixed in 10% buffered formalin and embedded in paraffin. The 4-μm sections of samples were deparaffinized with xylene and rehydrated in graded ethanol washes. For immunohistochemistry, Bond Dewax Solution (AR9222) was used. Antigen retrieval was performed using Bond RX H2(30) protocol: HIER 30 min ER1 (citrate pH 6) OR ER2 (EDTA pH 9) at 100 °C. Slides were quenched in BOND Polymer Refine Detection (Leica Biosystems DS9800). […] Slides were digitized on an Aperio slide scanner and representative areas per tumor acquired and analyzed by researchers blinded to the conditions of the experiment.
Extended Data Fig. 6 PXS-5505 in combination with gemcitabine in a KPC model. a. Quantification of proliferating cells (Ki67 positive nuclear staining) in KPC tumors at end point, treated as indicated. 5 fields of view (500 μm × 500 μm) per mouse and 10 mice per cohort were scored. […] Quantification of percent coverage of αSMA positive staining in KPC tumors at end point, treated as indicated. 3 fields of view (1000 μm × 1000 μm) per mouse and 10 mice per cohort were scored. […] Quantification of percent coverage of PDGFR-ß positive staining in KPC tumors at end point, treated as indicated. 3 fields of view (1000 μm × 1000 μm) per mouse and 10 mice per cohort were scored. […] 3 fields of view (500 μm × 500 μm) per mouse and 10 mice per cohort were scored. […]

The nature of another data set: Hepatocyte stability. The class given is in vitro ADME. The settings on record: hepatocytes; In vitro (human).
For another data set, the system named is KPC PDAC tumors. The data set is described as follows: Picrosirius red staining of KPC tumors (Fig. 1g). It is filed as in vivo, mouse. The following applies: KPC tumour bearing mice, Gem 100 mg/kg twice weekly i.p. for 15 cycles, individual animals. The source says: Fig. 1 Characterization of LOX family in PDAC. a,b, Kaplan–Meier curves for 5-year overall survival for lysyl oxidase family scores in the APGI/ICGC (low, n = 90 patients; high, n = 89 patients) (a) and TCGA (low, n = 57 patients; high, n = 58 patients) (b) PDAC datasets. Lines represent upper and lower tertiles. The lysyl oxidase family expression score is weighted by the Cox proportional hazards model coefficients for each family member. P values determined by log-rank (Mantel–Cox) test. c, Representative images of picrosirius red stained tumor cores from APGI/ICGC tumor microarrays. […] P values determined by log-rank (Mantel–Cox) test. e, Human LOX and LOXL2 plasma concentrations in healthy (n = 30 patient samples) and patients with PDAC (n = 12 patient samples) determined by SiMoA. […] Scale bars, 100 μm. g, Quantitative comparison of picrosirius red staining in tumors from KPC tumor-bearing mice treated with either saline vehicle or gemcitabine (n = 10 biologically independent animals per group). […] Two-tailed P values determined by unpaired, nonparametric t-tests with a Mann–Whitney U-test correction (comparison between two groups). […]

A word on the share remaining: it is the share of the starting amount still present when the sample was taken. Read a high share remaining as greater stability. For `Cl.Cl.NC/C=C(\F)CS(=O)(=O)c1cccc2cccnc12.O` [PXS-5505, (Z)-3-fluoro-4-(quinolin-8-ylsulfonyl)but-2-en-1-amine dihydrochloride monohydrate], the “macrophage infiltration (F4/80 positive staining)” value in the data set on F4/80 is 5 and 7. In addition, in “Hepatocyte stability”, the amount remaining at 1 h stood at 90%. As to `Nc1ccn([C@@H]2O[C@H](CO)[C@@H](O)C2(F)F)c(=O)n1` [Gem, gemcitabine], the “picrosirius red staining in tumours” value in the data set on KPC PDAC tumors was 26.8678 and 24.1241 and 47.4949 and 47.2536 and 61.2999 and 20.5678 and 34.5947 and 25.1726 and 42.1276 and 82.533.
